Two compounds from patent US10822322B2 (OCEANS LTD., priority 2016, dated 2020) can be followed below.

The test system of one data set is A549 (lung carcinoma). Kind of data set: CIMA assay (tetrazolium reduction, cell viability), A549. It counts as cell-based, human. On the procedure:
(§1) Stock solutions of the extracts were prepared in dimethylsulfoxide (DMSO) at 10 mg/mL and stored in 200 μl aliquots at −20° C. until analysis. This preparation ensured that the DMSO delivered to cells in culture never exceeded 1%.
(§2) Prepared extracts were assessed following chronic exposure conditions in which cells were seeded at 2×10^3 cells/well (96 wells-plate) and incubated with test compounds for 72 h. Each compound was evaluated over a range of concentrations (0, 10, 25, 50 or 100 μg/ml). Cell proliferation was initially assessed using a standard colorimetric indicator of metabolic activity (CIMA) assay. In this assay, tetrazole reduction was evaluated as a measure of metabolic function that evaluates mitochondrial activity to determine the extent of cell proliferation within a culture. This assay is based on the reduction of yellow tetrazolium salt to purple formazan by mitochondrial reductases enzyme in viable cells, resulting in a color changed that confers a change in absorbance. Six human cell lines were selected for primary evaluation: U373 (glioblastoma-astrocytoma), A549 (lung carcinoma), THP-1 (acute monocytic leukemia), MCF7 (mammary gland adenocarcinoma), SKOV3 (ovarian adenocarcinoma), and CCD1079SK (fibroblast, noncancerous but proliferating) (see FIG. 2 and Table 2). Table 3 expresses the IC50 for each extract.
(§3) These sub-fractions were again subjected to the bioassay evaluation presented above. Results are expressed in Table 8 as % viability (means±standard deviation of three replicates), with LD50/IC50 values in Table 9. […] The maximum DMSO concentration was 1% at 100 μg/ml with 5% SDS used as a known toxic inducer.

The test system of the next data set is MDA-MB. Kind of data set: CIMA assay (cell viability), MDA-MB. It counts as cell-based.
Data set [1] relates to SKOV3 (ovarian adenocarcinoma). Kind of data set: CIMA assay (tetrazolium reduction, cell viability), SKOV3. It counts as cell-based, human. The method, then:
as §1, §2, §3

For the next data set, the system named is PC3. The data set can be described thus: CIMA assay (tetrazolium reduction, cell viability), PC3. It counts as cell-based.
The test system of data set [2] is THP-1 (acute monocytic leukemia). Kind of data set: CIMA assay (tetrazolium reduction, cell viability), THP-1. It counts as cell-based, human. The method, then:
as §1, §2, §3

In data set [3] the test system is U373 (glioblastoma-astrocytoma). Kind of data set: CIMA assay (tetrazolium reduction, cell viability), U373. It counts as cell-based, human. On the procedure:
as §1, §2, §3

Data set [4] is described as follows: CIMA assay (tetrazolium reduction, cell viability), CCD1079SK. It counts as cell-based, human. As to conditions: human. On the procedure:
as §1, §2, §3

Data set [5] deals with MCF7 (mammary gland adenocarcinoma). Kind of data set: CIMA assay (tetrazolium reduction, cell viability), MCF7. It counts as cell-based, human. On the procedure: as §1
as §2, with “extract. […]” for “extract.”

For data set [6], the system named is CCD1079SK (fibroblast, noncancerous but proliferating). The data set can be described thus: CIMA assay (tetrazolium reduction, cell viability), CCD1079SK. It counts as cell-based, human. On the procedure:
as §1, §2, §3

[7] abbreviates: Homo sapiens, A549, read-out: average cell viability.
Setting [8] is: Homo sapiens, SK-OV-3, read-out: average cell viability.
Where [9] appears, read: Homo sapiens, PC-3, read-out: average cell viability.
Where [10] appears, read: Homo sapiens, THP-1, read-out: average cell viability.
The mark [11] stands for this setting: Homo sapiens, U373 MG, read-out: average cell viability.

For orientation: viability means a read-out of living cells in per cent, often relative to untreated cells.

Regarding `CCCCCC(O)C(O)/C=C/C1CCCCCCCC(=O)O1` (stereo not drawn) [compound 31-34-5, 12,13-dihydroxy-10-octadecen-9-olide], the viability at 1 µg/mL was determined as 95% in the data set on A549 (lung carcinoma) (setting [7]); 101% with MDA-MB (1 Ug/mL); 97% in data set [1] (setting [8]); 100% in the data set with PC3 (setting [9]); 96% in [2] (setting [10]); 90% in data set [3] (setting [11]). Further, the viability at 10 µg/mL in the data set with A549 (lung carcinoma) (setting [7]) is 93%; in the data set with MDA-MB (10 Ug/mL), 96%; in data set [1] (setting [8]), 97%; with PC3 (setting [9]), 93%; in data set [2] (setting [10]) it was 84%; in data set [3] (setting [11]), 85%. Moreover, the viability at 50 µg/mL with A549 (lung carcinoma) (setting [7]) was 92%; in the data set with MDA-MB (50 Ug/mL) it was 66%; in data set [1] (setting [8]) it was 94%; in the data set on PC3 (setting [9]), 97%; in data set [2] (setting [10]), 68%; in data set [3] (setting [11]), 68%. Besides, the viability at 100 µg/mL worked out at 61% in the data set with A549 (lung carcinoma) (setting [7]); 20% in the data set with MDA-MB (100 Ug/mL); 85% in data set [1] (setting [8]); 19% in the data set on PC3 (setting [9]); 44% in data set [2] (setting [10]); 3% in data set [3] (setting [11]). Further, the entries for the “fold change viability (AVG)” value in the data set on MDA-MB (10 ug/mL) and with MDA-MB (50 ug/mL) were 1.05 and 0.72, respectively. For the same compound, in data set [4], the viability at 72 h, 1 µg/mL was 91%. Besides, the viability at 72 h, 10 µg/mL in data set [4] worked out at 84%. In addition, in [4], the viability at 72 h, 50 µg/mL is 90%. In data set [4], the viability at 72 h, 100 µg/mL is 17%.

Turning to `CCCCCCCCCCCCOS(=O)(=O)[O-].[Na+]` [SDS 5%, reference compound], the “% viability AVG” value was determined as 66.2% with A549 (lung carcinoma); 90.7% in data set [1]; 93.7% in [5]; 94.4% in the data set with PC3; 39.9% in data set [2]; 78.5% in data set [3]. Also, the “% viability AVG” value in data set [6] was 87.9%. The cell viability AVG in the data set on A549 (lung carcinoma) was determined as 68.7%; with PC3 it was 77.3%.
